Structures can show the parent of a compound that is named as a salt.

Consider `COc1ccc(CN2CCc3ccc(C(=O)CCC4CCN(Cc5ccc(F)cc5)CC4)cc3CC2)cc1` (as salt: hydrochloride), for which the melting point is 218 to 226 °C (dec.).

Regarding `Cc1ccc(CN2CCC(CCCC(=O)c3ccc4c(c3)CCN(Cc3cccc(Cl)c3)CC4)CC2)cc1` (as salt: hydrochloride) [Example 202, 1-[3-[(3-Chlorophenyl)methyl]-2,3,4,5-tetprahydro-1H-3-benzazepin-7-yl]-4-[1-[(4-methylphenyl)methyl]-4-piperidinyl]-1-butanone Dihydrochloride], the melting point lay within 195 to 198 °C.

With `Cc1ccccc1CN1CCc2ccc(C(=O)CCCC3CCN(Cc4ccccc4C(=O)N4CCN(C)CC4)CC3)cc2CC1` (as salt: hydrochloride) [Example 313, 4-[1-[[2-[(4-methyl-1-pipiperazinyl)carbonyl]phenyl]methyl]-4-piperidinyl]-1-[3[(2-methylphenyl)methyl]-2,3,4,5-tetrahydro-1H-3-benzazepin-7-yl]-1-butanone Trihydrochloride], the melting point is 186 to 193 °C (dec.).

`CC(C)(C)c1ccc(CN2CCC(CCC(=O)c3ccc4c(c3)CCN(Cc3ccc(F)cc3)CC4)CC2)cc1` (as salt: hydrochloride): the melting point was 230 to 236 °C (dec.). For `Cc1cccc(CN2CCC(CCC(=O)c3ccc4c(c3)CN(Cc3ccc(F)cc3)CCO4)CC2)c1` (as salt: hydrochloride) [Example 79, 1-[4-[(4-Fluorophenyl)methyl]-2,3,4,5-tetrahydro-1,4-benzoxazepin-7-yl]-3-[1-[(3-methylphenyl)methyl]-4-piperidinyl]-1-propanone Dihydrochloride] the value was 223 to 225 °C. For `O=C(CCC1CCN(Cc2ccccn2)CC1)c1ccc2c(c1)CN(Cc1ccccc1)CCO2` (as salt: hydrochloride) the value was 238 to 240 °C; for `O=C(O)c1ccc(CN2CCC(CCCC(=O)c3ccc4c(c3)CCN(Cc3ccccc3)CC4)CC2)cc1` [Example 183, 4-[[4-[4-[3-(Phenylmethyl)-2,3,4,5-tetrahydro-1H-3-benzazepin-7-yl]-4-oxobutyl]-1-piperidinyl]methyl]benzoic Acid], 165 to 176 °C; for `CCOC(=O)COc1cccc(CN2CCC(CCC(=O)c3ccc4c(c3)CN(Cc3ccc(F)cc3)CCO4)CC2)c1` (as salt: hydrochloride) [Example 103, Ethyl 2-[3-[[4-[3-[4-[(4-fluorophenyl)methyl]-2,3,4,5-tetrahydro-1,4-benzoxazepin-7-yl]-3-oxopropyl]-1-piperidinyl]methyl]phenoxy]ethanoate Dihydrochloride], 200 to 203 °C. For `CC(=O)Nc1cccc(CN2CCC(CCCC(=O)c3ccc4c(c3)CCN(Cc3ccccc3)CC4)CC2)c1` (as salt: hydrochloride) [Example 179, N-[3-[[4-[4-[3-(Phenylmethyl)-2,3,4,5-tetrahydro-1H-3-benzazepin-7-yl]-4-oxobutyl]-1-piperidinyl]methyl]phenyl]acetamide Dihydrochloride] the value was 179 to 187 °C. `CC(=O)N1CCC(CCC(=O)c2ccc3c4c2CCCC4CN3C(C)=O)CC1` (centres unmarked) [Example 67, 3-(1-Acetyl-4-piperidinyl)-1-(1-acetyl-1,2,2a,3,4,5-hexahydrobenz[cd]indol-6-yl)-1-propanone] had a melting point of 130 to 132 °C. For `O=C(CCC1CCN(Cc2ccccc2)CC1)c1ccc2c(c1)CCN(Cc1ccc(F)cc1)CC2` (as salt: hydrochloride) the value was 217 to 220 °C; for `COC(=O)c1ccccc1CN1CCC(CCCC(=O)c2ccc3c(c2)CCN(Cc2ccccc2C)CC3)CC1` (as salt: hydrochloride), 189 to 192 °C. For `CC(=O)N1CCC(CCC(=O)c2ccc3c(c2)CN(Cc2ccccc2)c2ccccc2CC3)CC1.Cl` the value was 155 to 158 °C; for `Cc1ccccc1CN1CCc2ccc(C(=O)CCCC3CCN(Cc4ccccc4C(=O)N4CCOCC4)CC3)cc2CC1` (as salt: hydrochloride) [Example 314, 1-[3-[(2-Methylphenyl)methyl]-2,3,4,5-tetrahydro-1H-3-benzazepin-7-yl]-4-[1-[[2-(morpholinocarbonyl)phenyl]methyl]-4-piperidinyl]-1-butanone Dihydrochloride], 168 to 172 °C; for `O=C(CCCC1CCN(Cc2ccccc2Cl)CC1)c1ccc2c(c1)CCN(Cc1ccccc1)CC2` (as salt: hydrochloride) [Example 178, 4-[1-[(2-Chlorophenyl)methyl]-4-piperidinyl]-1-[3-(phenylmethyl)-2,3,4,5-tetrahydro-1H-3-benzazepin-7-yl]-1-butanone Dihydrochloride], 226 to 229 °C (dec.). As for `N#Cc1cccc(CN2CCc3ccc(C(=O)CCCC4CCN(Cc5ccccc5Cl)CC4)cc3CC2)c1` [Example 267, 4-[1-[(2-Chlorophenyl)methyl]-4-piperidinyl]-1-[3-[(3-cyanophenyl)methyl]-2,3,4,5-tetrahydro-1H-3-benzazepin-7-yl]-1-butanone], the melting point was in the range of 121 to 122 °C.

`O=C(CCC1CCN(Cc2ccccc2F)CC1)c1ccc2c(c1)CN(Cc1ccccc1)CCO2` (as salt: hydrochloride) showed a melting point of 242 to 244 °C. The same measure for `CC(=O)N1CCC(CCC(=O)c2ccc3c(c2)CNc2ccccc2CC3)CC1` [Example 69, 3-(1-Acetyl-4-piperidinyl)-1-(5,6,11,12-tetrahydrodibenz[bf]azocin-8-yl)-1-propanone]: 153 to 155 °C; for `COc1ccc(CN2CCC(CCC(=O)c3ccc4c(c3)CCN(Cc3ccc(F)cc3)CC4)CC2)cc1OC` (as salt: hydrochloride): 199 to 203 °C; for `Cl.Cl.O=C(CCCC1CCN(Cc2ccccc2)CC1)c1ccc2c(c1)CCN(Cc1ccccc1)CC2`: 220 to 222 °C (dec.). `Cc1ccccc1CN1CCc2ccc(C(=O)CCCC3CCN(Cc4ccccc4N)CC3)cc2CC1` (as salt: hydrochloride) showed a melting point of 230 to 235 °C. The same measure for `CS(=O)(=O)Nc1cccc(CN2CCC(CCCC(=O)c3ccc4c(c3)CCN(Cc3ccccc3)CC4)CC2)c1` (as salt: hydrochloride): 158 to 164 °C; for `Cc1ccc(CN2CCc3ccc(C(=O)CCCC4CCN(Cc5ccc(F)cc5)CC4)cc3CC2)cc1` (as salt: hydrochloride) [Example 192, 4-[1-[(4-Fluorophenyl)methyl]-4-piperidinyl]-1-[3-[(4-methylphenyl)methyl]-2,3,4,5-tetrahydro-1H-3-benzazepin-7-yl]-1-butanone Dihydrochloride]: 225 to 228 °C. For `O=C(CCC1CCN(Cc2cccc(C(F)(F)F)c2)CC1)c1ccc2c(c1)CN(Cc1ccccc1)CCO2` (as salt: hydrochloride) the value was 235 to 237 °C; for `O=C(CCC1CCN(Cc2cc(F)cc(F)c2)CC1)c1ccc2c(c1)CN(Cc1ccccc1)CCO2` (as salt: hydrochloride), 241 to 243 °C; for `O=C(CCCC1CCNCC1)c1ccc2c(c1)CCN(Cc1ccccc1)CC2` (as salt: hydrochloride) [Example 26, 1-[3-(Phenylmethyl)-2,3,4,5-tetrahydro-1H-3-benzazepin-7-yl]-4-(4-piperidinyl)-1-butanone Dihydrochloride], 201 to 203 °C.

Usually melting point stands for the temperature of the solid-liquid transition.
